Assay results reported in patent US20260200849A1, “CATIONIC LIPIDS AND PREPARATION METHOD THEREOF” (RiboX Therapeutics HK Limited, priority 2024, published 2026).

Tests used:
Hep G2 cells [1] = assay: In vitro expression: luciferase activity in Hep G2 cells transfected with RNA-LNPs; type: cell-based; conditions: Formulation No. 001, RNA No. 331 (firefly-luciferase), 100 ng/mL RNA-LNPs, 72 hours post transfection
Procedure: 2E5 Hep G2 cells were transfected with 100 ng/mL of RNA-LNPs encoding for firefly-luciferase. At 72 hours post transfection, the cells were washed and lysed. The luciferase expression (2-well repeat) was determined in the cell lysates with the luciferase assay reagent kit (Promega), according to the kit protocol, luciferase activity was measured by a luminometer.

IL-6 = assay: In vivo tolerability by IV: serum IL-6 by Luminex; set-up: species or system C57BL/6J mice; conditions: Formulation No. 001, RNA No. 331, male C57BL/6J mice, 1.0 mg*kg/1 intravenous; for IL-6 at 2 h: 2 hours post injection; for IL-6 at 24 h: 24 hours post injection
In short: (§1)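 Male C57BL/6J mice aged 6-8 weeks (N=3) received 1.0 mg*kg−1 firefly-luciferase RNA-LNPs intravenously, with PBS as negative control. Serum taken at 2 and 24 h post-injection was assayed for MCP-1 and IL-6 by Luminex.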

Balb/c mice = assay: In vivo expression by IV, 0.05 mg/kg luciferase RNA-LNPs, IVIS luminescence; conditions: Formulation No. 001, RNA No. 331; female Balb/c mice, 0.05 mg*kg−1 intravenous, 24-hours post injection
In short: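 Female Balb/c mice (7-8 weeks, N=3) received 0.05 mg*kg−1 firefly-luciferase RNA-LNPs IV. Luciferin (15 mg/ml) was given IP at 24 and 72 h post-dose for IVIS whole-body luminescence. A second run imaged whole body, liver and spleen at 24 h only.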

MCP-1 = assay: In vivo tolerability by IV: serum MCP-1 by Luminex; set-up: species or system C57BL/6J mice; conditions: Formulation No. 001, RNA No. 331, male C57BL/6J mice, 1.0 mg*kg/1 intravenous; for MCP-1 at 2 h: 2 hours post injection; for MCP-1 at 24 h: 24 hours post injection
In short: as §1

[2] = LNP size and polydispersity index (PDI) by dynamic light scattering (Zetasizer); type: physicochemical; conditions: for Size (nm): Formulation No. 001 (Ionizable lipid:DSPC:cholesterol:DMG-PEG2000 = 50:10:38.5:1.5, N/P 6), RNA No. 331; for PDI: Formulation No. 001, RNA No. 331
Procedure: (§2) The LNP size and polydispersity index (PDI), determined by dynamic light scattering (DLS), and zeta potential were measured by a Zetasizer machine (Malvern). RNA concentration and encapsulation efficacy (EE %) were analyzed by the Quant-IT Ribogreen kit by calculating the percentage encapsulation at 100%—(RNA-LNPs/RNA-LNPs with Triton X-100).

C57BL/6J mice = assay: In vivo expression by IV, 1.0 mg/kg luciferase RNA-LNPs, whole-body and organ IVIS luminescence; conditions: Formulation No. 001, RNA No. 331; male C57BL/6J mice, 1.0 mg*kg−1 intravenous, 24-hours post injection
In short: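 Male C57BL/6J mice, 6-8 weeks old (N=3), received 1.0 mg*kg−1 firefly-luciferase RNA-LNPs IV. At 24 h post-dose, luciferin (15 mg/ml) was given IP, and whole-body, liver, spleen, kidney, small and large intestine luminescence was imaged by IVIS.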

Hep G2 cells [3] = assay: In vitro toxicity: Hep G2 cell viability by CellTiter-Glo; type: cell-based; conditions: Formulation No. 001, RNA No. 331, 1 μg/mL RNA-LNPs, 72 hours post transfection, cell only = 100%
Procedure: 2E5 Hep G2 cells were transfected with 1 μg/mL RNA-LNPs. At 72 hours post transfection, cell viability (2-well repeat) was determined with the CellTiter-Glo® reagent kit, according to the kit protocol, measured by a luminometer. Cell only as control (100%).
The cell viability was calculated according to the following formula: […]

[4] = RNA encapsulation efficacy (EE %) by Quant-IT Ribogreen kit; type: physicochemical; conditions: LNP, Formulation No. 001, RNA No. 331
Procedure: as §2

Row | Compound | In vitro Expression (Mean) (Hep G2 cells [1]) | IL-6 at 2 h (IL-6) [pg/mL] | IL-6 at 24 h (IL-6) [pg/mL] | Liver (p/s) (Mean) (Balb/c mice) | Spleen (p/s) (Mean) (Balb/c mice) | Whole body (p/s) (Mean) (Balb/c mice) | MCP-1 at 2 h (MCP-1) [pg/mL] | MCP-1 at 24 h (MCP-1) [pg/mL] | Size (nm) [2] [nm] | PDI [2] | Kidney (p/s) (C57BL/6J mice) | Large intestine (p/s) (C57BL/6J mice) | Liver (p/s) (C57BL/6J mice) | Small intestine (p/s) (C57BL/6J mice) | Spleen (p/s) (C57BL/6J mice) | Whole body (p/s) (C57BL/6J mice) | In vitro cell viability (%) (Mean) (Hep G2 cells [3]) | EE (%) [4] [%]
1 | CCCCC/C=C\C/C=C\CCCCCCCCOC(=O)NC(COC(=O)NCCN1CCCCCC1)C(=O)OCCCCCCCOC(=O)CCCCCCCCC (stereo not drawn) [Lipid 944] | 3.60E+05 | 432 | 2.5 | 5.10E+08 | 1.31E+08 | 1.29E+09 | 3640 | 161 | 86.75 | 0.17 | 1.54E+07 | 5.53E+07 | 5.27E+08 | 1.93E+08 | 4.76E+08 | 1.06E+09 | 95.62 | 90.80
2 | CCCCC/C=C\C/C=C\CCCCCCCCOC(=O)NC(COC(=O)NCCN1CCCCCC1)C(=O)OCCCCCCCCOC(=O)C(CCCCCC)CCCCCCCC (stereo not drawn) [Lipid 881] | 4.02E+05 | 12.8 | 6.69 | 2.25E+08 | 6.14E+07 | 1.18E+09 | 1190 | 253 | 61.73 | 0.02 | 4.26E+07 | 1.30E+08 | 1.65E+09 | 8.57E+08 | 2.37E+08 | 2.92E+09 | 86.94 | 90.26
3 | CCCCCCCCCC(=O)OCCCCCCCOC(=O)C(COC(=O)NCCN1CCCCC1)NC(=O)OCCCCCCCCOC(=O)C(CCCCCC)CCCCCCCC (stereo not drawn) [Lipid 933] | 1.26E+06 | 68.4 | 8.03 | 6.92E+08 | 1.49E+08 | 2.89E+09 | 1240 | 300 | 75.47 | 0.02 | 6.08E+07 | 9.52E+07 | 3.90E+09 | 6.36E+08 | 5.98E+08 | 3.45E+09 | 95.05 | 92.12
